# “And” between values parts separate entries of the source, which are not always exact repeats. Equal entries are not always repeated. Where two headings read alike, the source gives them in different places.
# Legend:
# [1] = tested on: colorectal cancer cell line HCT116; assay: Cell growth inhibitory activity, HCT116; assay type: cell-based
# Description: (§1) The cell growth inhibitory activity against a colorectal cancer cell line HCT116 was measured. As an index of cell growth inhibitory activity, a concentration at which cell growth was inhibited by 50% as compared with a control (IC50) was used. The method is as follows. HCT116 was added to a 6-well plate by 5×10^4, compounds having various concentrations were added after 24 hours, and the number of cells was counted after 72 hours of culture. As the control, DMSO was used in an amount equal to the amount added in accordance with the addition concentration of the highest-concentration compound. The number of cells at each concentration relative to the control was expressed as a percentage.
# (§2) The method is as described above.
# (§3) The cell growth inhibitory activity (IC50) of each of curcumin, GO-Y199, and GO-Y206 against the colorectal cancer cell lines DLD-1 and HCT116 and the gastric cancer cell lines KATO III and H-111-TC was measured. The method is as described above.
# [2] = tested on: breast cancer cell line HCC1395; assay: Cell growth inhibitory activity, HCC1395; assay type: cell-based
# Description: [The source words this procedure for another cell line and reports this cell line under the same test.] as §1, §2
# [3] = tested on: breast cancer cell line HCC38; assay: Cell growth inhibitory activity, HCC38; assay type: cell-based
# Description: [The source words this procedure for another cell line and reports this cell line under the same test.] as §1, §2
# [4] = tested on: gastric cancer cell line KATO III; assay: Cell growth inhibitory activity, KATO III; assay type: cell-based
# Description: as §1, §2, §3
# [5] = tested on: colorectal cancer cell line DLD-1; assay: Cell growth inhibitory activity, DLD-1; assay type: cell-based
# Description: as §1, §2, §3
# [6] = tested on: pancreatic cancer cell line ASPC-1; assay: Cell growth inhibitory activity, ASPC-1; assay type: cell-based; conditions: Table 7
# Description: [The source words this procedure for another cell line and reports this cell line under the same test.] as §1, §2
# [7] = tested on: malignant pleural mesothelioma cell line NCI-H226; assay: Cell growth inhibitory activity, NCI-H226; assay type: cell-based; conditions: Table 8
# Description: as §1, with “percentage. In Table 3, the turbidities of the compounds are also indicated.” for “percentage.”
# (§4) GO-Y198, GO-Y199, and GO-Y200 against malignant pleural mesothelioma cell lines NCI-H226 and MSTO211H was measured. The method is as described above. For comparison, the IC50 of cisplatin (CDDP), a cytocidal anticancer agent, is also indicated.
# [8] = tested on: malignant pleural mesothelioma cell line MSTO211H; assay: Cell growth inhibitory activity, MSTO211H; assay type: cell-based; conditions: Table 8
# Description: as §1, with “percentage. In Table 3, the turbidities of the compounds are also indicated.” for “percentage.”
# as §4
# [9] = tested on: malignant melanoma cell line G361; assay: Cell growth inhibitory activity, G361; assay type: cell-based; conditions: Table 9
# Description: [The source words this procedure for another cell line and reports this cell line under the same test.] as §1, §2
# pSTAT3 = assay: Influence on pSTAT3, immunohistochemistry; assay type: cell-based; conditions: 2 μM; 24 hours; control 10.2±1.6%
# Description: The influence of GO-Y199 on NF-kB (p65) was investigated. The method is as follows. 3×10^6 cells of the HCT116 cell line were added to a 10-cm plate, 2 μM of GO-Y199 was added after 24 hours, the cells were collected after 24 hours, embedded in iPGell (GenOStaff), and fixed in formalin, paraffin blocks were then prepared, and immuno-histochemistry was performed with an anti-NF-kB (p65) antibody. In addition, 2 μM and 5 μM of GO-Y199 were added, lysates were collected after 24 hours, and an expression level of NF-kB (p65) was analyzed using an ELISA-plate (NF-kBp65 (pS536) SimpleStep-ELISA-kit, Abcam). An amount of protein was corrected by the absorbance of A 280 nm. The upper part of FIG. 14 indicates photographs of the control group and the GO-Y199 (2 μM)-added group after 24 hours. The lower part of FIG. 14 indicates results of the t-test of these groups after 24 hours. FIG. 15 indicates the comparison results of the NF-kB inhibitory effect of GO-Y199 (2 μM, 5 μM)-added groups with respect to the control group.
# The influence of GO-Y199 on pSTAT3 was investigated. The method is as described above. Immunohistochemistry was performed with an anti-pSTAT3 antibody. The upper part of FIG. 16 indicates photographs of the control group and the GO-Y199 (2 μM)-added group after 24 hours. The lower part of FIG. 16 indicates results of the t-test of these groups after 24 hours.
# Safety and toxicity test = assay type: in vivo, mouse
# Description: In vivo safety and toxicity of GO-Y199 were investigated. The method is as follows. As described above, the equivalent of 1 mg of GO-Y199 was injected into the tail vein, blood was collected from the orbital vein 7 days later, and a hemoglobin value (Hb), the number of white blood cells (WBC), and the number of platelets (Plt) were measured with Cell tac MEK-5258 (available from Nihon Kohden Corporation). A creatinine value (Cre), a total bilirubin value (T-Bil), and an AST value were subjected to outsourcing (measured in Skylight Biotech Inc.). FIG. 29 indicates change in body weight of mice after intravenous injection. FIG. 30 indicates photographs of the tail of the mouse after intravenous injection.
# [10] = individual mice, 7 days after 1 mg iv
smiles,measurement,setting,value
COCOc1cc(/C=C/C(=O)CC(SCCOCCOCCOCCOCc2cn([C@@H]3O[C@H](CO)[C@@H](O[C@@H]4O[C@H](CO)[C@H](O)[C@H](O)[C@H]4O)[C@H](O)[C@H]3O)nn2)c2cc(OCOC)cc(OCOC)c2)cc(OCOC)c1 (stereo partly drawn) [GO-Y199],IC50,"[1]; Table 3, HCT116, cell count after 72 hours of culture vs DMSO control, read-out: IC50",0.43 µM
same,"GO-Y199 vs GO-Y030 (IC50 comparison), HCT-116","[1]; Table 5, ratio of IC50",0.65
same,"GO-Y199 vs curcumin (IC50 comparison), HCT-116","[1]; Table 5, ratio of IC50",0.029
same,IC50,"[1]; Table 6, read-out: IC50 (μM) HCT116",0.98 µM
same,IC50,"[1]; read-out: IC50 HCT-116, Table 4, 72 hours",0.46 µM
same,IC50,"[2]; Table 4, 72 hours",720 nM
same,"GO-Y199 vs GO-Y030 (IC50 comparison), HCC1395","[2]; Table 5, ratio of IC50",0.34
same,IC50,"[3]; Table 4, 72 hours",1050 nM
same,"GO-Y199 vs GO-Y030 (IC50 comparison), HCC38","[3]; Table 5, ratio of IC50",0.58
same,IC50,"[4]; Table 4, 72 hours, read-out: IC50 KATO III",0.8 µM
same,IC50,"[4]; Table 6, read-out: IC50 (μM) KATO III",3.86 µM
same,IC50,"[5]; Table 4, 72 hours, read-out: IC50 DLD-1",0.26 µM
same,"GO-Y199 vs GO-Y030 (IC50 comparison), DLD-1","[5]; Table 5, ratio of IC50",0.36
same,"GO-Y199 vs curcumin (IC50 comparison), DLD-1","[5]; Table 5, ratio of IC50",0.014
same,IC50,"[5]; Table 6, read-out: IC50 (μM) DLD-1",0.85 µM
same,IC50,[6],1.03 µM
same,IC50,[7],4.7 µM
same,IC50,[8],2.4 µM
same,IC50,[9],1.4 µM
same,relative expression level of pSTAT3,pSTAT3,0.3±0.5%
same,Cre (mg/dL) Ave. ± SD,"Safety and toxicity test; 7 days after 1 mg iv, control 0.24 ± 0.15",0.15 ± 0.02 mg/dL
same,T-Bil (mg/dL) Ave. ± SD,"Safety and toxicity test; 7 days after 1 mg iv, control 0.47 ± 0.17",0.33 ± 0.19 mg/dL
same,AST (U/L) Ave. ± SD,"Safety and toxicity test; 7 days after 1 mg iv, control 65.0 ± 9.1",62.0 ± 8.6 U/L
same,hematology and blood chemistry vs control group,Safety and toxicity test; Tables 12 and 13,no significant difference
same,body weight vs control group,Safety and toxicity test; after intravenous injection,no difference in body weight
same,local finding in the tails,Safety and toxicity test; after tail vein injection,no local abnormal finding
same,AST (U/L),Safety and toxicity test; [10],63 U/L and 72 U/L and 51 U/L
same,Cre,Safety and toxicity test; [10],0.18 mg/dL and 0.14 mg/dL and 0.13 mg/dL
same,T-Bil,Safety and toxicity test; [10],0.2 mg/dL (2×) and 0.6 mg/dL
same,overall safety,Safety and toxicity test; mouse model,safe

# Source: patent publication US20240158430A1, “NOVEL COMPOUND OR SALT THEREOF, AND ANTITUMOR ACTIVATOR CONTAINING SAME AS ACTIVE INGREDIENT” (AKITA UNIVERSITY, priority 2021, published 2024)
